Test results: ChEMBL document CHEMBL1201862, “PubChem BioAssay data set” (2004)
Calls of active or inactive are those of the source.

Tests used:
Escherichia coli [1] = assay: microbe, parasite or virus in culture
[2] = biological target: T1, Serine/threonine-protein phosphatase (Candida dubliniensis (strain CD36 / CBS 7987 / NCPF 3949 / NRRLY-17841) (Yeast), UniProt B9W6M3); assay: calcineurin pathway inhibitors in yeast reporter, dose response, S. cerevisiae, CDRE-lacZ, luminescence, secondary (AID 2388); assay type: functional, cell-based;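 further: yeast reporter cells carrying a calcineurin-responsive lacZ construct stimulated with calcium chloride; luminescent beta-galactosidase reporter signal in whole cells rather than isolated phosphatase activity; potency for inhibition where a drop in reporter signal means calcineurin blockade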
T1 sequence (B9W6M3 whole entry): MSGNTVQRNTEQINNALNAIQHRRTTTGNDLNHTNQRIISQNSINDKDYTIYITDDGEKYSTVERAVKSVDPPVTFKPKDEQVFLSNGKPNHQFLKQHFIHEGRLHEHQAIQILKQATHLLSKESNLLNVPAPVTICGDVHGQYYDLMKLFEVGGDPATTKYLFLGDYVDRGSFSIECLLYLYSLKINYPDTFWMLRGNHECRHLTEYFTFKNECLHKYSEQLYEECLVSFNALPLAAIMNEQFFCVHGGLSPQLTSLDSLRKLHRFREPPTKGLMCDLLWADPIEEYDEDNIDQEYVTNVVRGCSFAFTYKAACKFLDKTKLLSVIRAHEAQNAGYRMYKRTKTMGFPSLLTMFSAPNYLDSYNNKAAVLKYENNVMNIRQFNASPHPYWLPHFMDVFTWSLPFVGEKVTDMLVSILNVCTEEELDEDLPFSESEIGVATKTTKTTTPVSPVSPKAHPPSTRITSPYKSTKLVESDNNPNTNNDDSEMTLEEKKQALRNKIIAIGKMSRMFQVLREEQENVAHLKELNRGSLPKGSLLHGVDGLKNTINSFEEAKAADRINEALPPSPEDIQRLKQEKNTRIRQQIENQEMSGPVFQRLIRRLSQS

[3] = C. albicans growth with fluconazole, confirmation, fluorescence, retest (AID 2467); assay type: functional, cell-based
[4] = biological target: ATP-dependent molecular chaperone HSP82 (Candida albicans (strain WO-1) (Yeast), UniProt C4YTQ8); assay: loss of DOC-induced GRE-beta-galactosidase reporter signal, dose response, Hsp90 inhibitor project, S. cerevisiae, luminescence (AID 2400); assay type: functional, cell-based;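 further: beta-galactosidase luminescence from glucocorticoid response element reporter as proxy for Hsp90 function; inhibitor potency where signal loss means Hsp90 inhibition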
Chain of ATP-dependent molecular chaperone HSP82 (C4YTQ8 whole entry): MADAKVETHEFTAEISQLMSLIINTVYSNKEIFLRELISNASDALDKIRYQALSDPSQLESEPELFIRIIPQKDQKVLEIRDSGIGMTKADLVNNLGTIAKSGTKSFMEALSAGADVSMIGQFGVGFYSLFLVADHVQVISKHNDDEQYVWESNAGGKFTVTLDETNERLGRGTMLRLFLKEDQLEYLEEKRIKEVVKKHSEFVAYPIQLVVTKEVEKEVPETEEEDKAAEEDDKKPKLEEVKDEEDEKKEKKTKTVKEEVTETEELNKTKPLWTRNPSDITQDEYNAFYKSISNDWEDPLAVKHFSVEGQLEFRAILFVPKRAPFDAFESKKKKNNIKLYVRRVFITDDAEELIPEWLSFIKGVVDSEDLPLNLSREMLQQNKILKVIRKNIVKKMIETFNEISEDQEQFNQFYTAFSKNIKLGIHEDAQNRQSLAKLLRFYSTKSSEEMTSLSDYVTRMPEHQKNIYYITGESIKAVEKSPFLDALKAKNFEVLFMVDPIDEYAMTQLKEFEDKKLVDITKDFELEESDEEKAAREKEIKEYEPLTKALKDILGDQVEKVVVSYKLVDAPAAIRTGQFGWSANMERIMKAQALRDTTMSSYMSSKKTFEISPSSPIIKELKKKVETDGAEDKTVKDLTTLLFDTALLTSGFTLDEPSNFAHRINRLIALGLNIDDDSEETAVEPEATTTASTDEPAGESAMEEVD

[5] = NIH-3T3 fibroblast cytotoxicity, dose response, cytotoxicity control, cell-based, fluorescence, Alamar Blue, secondary assay (AID 2327); assay type: functional;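 further: NIH-3T3 mouse fibroblasts cultured with fluconazole at 8 µg/mL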
Escherichia coli [6] = assay: microbe, parasite or virus in culture; remark: listed apart in the source
HEK293 [7] = assay: cells; details: Homo sapiens
HEK293 [8] = assay: cells; details: Homo sapiens; remark: listed apart in the source
[9] = biological target: T2, Heat shock factor protein 1 (Mus musculus, UniProt P38532); assay: HSF1 potentiators in luciferase reporter cells, confirmation, cell-based, NIH3T3, luminescence, dose retest (AID 435004); assay type: functional;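 further: stress induced by proteasome inhibitor MG132 added 30 min after compound; luciferase reporter driven by HSF1 response element in NIH3T3 cells; actives raise luminescence as potentiators of the MG132 stress response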
T2 sequence (P38532 whole entry): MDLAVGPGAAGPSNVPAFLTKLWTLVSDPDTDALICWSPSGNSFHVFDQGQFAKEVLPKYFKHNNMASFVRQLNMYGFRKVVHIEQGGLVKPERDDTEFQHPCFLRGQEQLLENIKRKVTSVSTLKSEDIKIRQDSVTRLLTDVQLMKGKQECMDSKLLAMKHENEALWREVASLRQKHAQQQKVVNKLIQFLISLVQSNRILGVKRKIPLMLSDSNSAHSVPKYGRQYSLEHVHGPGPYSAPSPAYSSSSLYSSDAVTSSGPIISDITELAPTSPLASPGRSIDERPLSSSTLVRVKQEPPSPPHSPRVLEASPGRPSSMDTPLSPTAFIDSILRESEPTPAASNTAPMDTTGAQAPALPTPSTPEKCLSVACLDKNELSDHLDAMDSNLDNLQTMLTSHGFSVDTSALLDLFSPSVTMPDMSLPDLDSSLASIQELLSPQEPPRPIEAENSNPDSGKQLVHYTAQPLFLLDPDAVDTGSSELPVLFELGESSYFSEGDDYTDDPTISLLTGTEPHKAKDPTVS

Vero [10] = assay: cells; assay type: functional, cell-based; details: Chlorocebus sabaeus
INS1 = assay: beta cell apoptosis inhibitors, cytokine rescue, dose response, luminescence, retest (AID 449756); assay type: functional, cell-based; details: Rattus norvegicus;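 further: cell death triggered by IL-1 beta plus TNF-alpha plus IFN-gamma mixture; protective hits raise ATP signal compared with cytokine alone wells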
[11] = biological target: Induced myeloid leukemia cell differentiation protein Mcl-1 (Homo sapiens, UniProt Q07820); assay type: functional
Chain of Induced myeloid leukemia cell differentiation protein Mcl-1 (Q07820 whole entry): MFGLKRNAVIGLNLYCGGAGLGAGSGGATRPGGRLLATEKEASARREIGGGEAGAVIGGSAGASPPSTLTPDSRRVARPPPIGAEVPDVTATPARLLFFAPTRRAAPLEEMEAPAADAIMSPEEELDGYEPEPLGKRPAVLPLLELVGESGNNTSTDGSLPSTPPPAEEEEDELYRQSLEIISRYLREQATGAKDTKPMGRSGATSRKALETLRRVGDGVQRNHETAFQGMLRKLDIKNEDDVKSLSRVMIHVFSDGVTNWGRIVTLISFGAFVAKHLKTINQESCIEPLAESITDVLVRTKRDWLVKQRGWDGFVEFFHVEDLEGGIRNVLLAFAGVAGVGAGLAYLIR

Vero [12] = assay: cells; assay type: functional; details: Chlorocebus sabaeus
[13] = Luminescence Cell-Based Dose Retest to Confirm Inhibitors of Cancer Stem Cells. [Related pubchem assays (depositor defined):AID2717, AID2721]; assay type: functional; details: Homo sapiens
Leucine aminopeptidase = biological target: T3, Leucine aminopeptidase (Plasmodium falciparum 3D7, UniProt Q8IL11); assay: P. falciparum M17LAP inhibitors, primary screen, biochemical, fluorogenic H-Leu-NHMec substrate, 1536-well (AID 1619); assay type: functional
T3 sequence (Q8IL11 whole entry): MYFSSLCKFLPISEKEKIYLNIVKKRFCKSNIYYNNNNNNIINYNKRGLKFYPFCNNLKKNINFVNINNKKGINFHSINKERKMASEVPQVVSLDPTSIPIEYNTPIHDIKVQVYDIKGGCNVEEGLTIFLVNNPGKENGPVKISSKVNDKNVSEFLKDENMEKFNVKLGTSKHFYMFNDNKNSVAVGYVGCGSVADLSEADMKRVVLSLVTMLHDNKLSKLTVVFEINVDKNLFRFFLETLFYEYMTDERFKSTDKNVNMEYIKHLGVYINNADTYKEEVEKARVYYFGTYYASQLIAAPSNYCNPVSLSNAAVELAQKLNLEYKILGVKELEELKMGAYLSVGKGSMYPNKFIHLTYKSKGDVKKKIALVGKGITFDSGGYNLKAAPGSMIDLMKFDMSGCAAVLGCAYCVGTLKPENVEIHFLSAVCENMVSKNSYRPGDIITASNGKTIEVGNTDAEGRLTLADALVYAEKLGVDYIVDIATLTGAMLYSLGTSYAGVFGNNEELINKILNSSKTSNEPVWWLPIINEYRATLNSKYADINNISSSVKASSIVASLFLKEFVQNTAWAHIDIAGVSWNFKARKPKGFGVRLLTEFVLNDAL

[14] = biological target: T4, Rac GTPase-activating protein 1 (Homo sapiens, UniProt Q9H0H5); assay: MgcRacGAP GTPase-activating activity inhibitors, confirmation, biochemical, ADP Hunter fluorescence, primary and confirmatory (AID 624330); assay type: functional
T4 sequence (Q9H0H5 whole entry): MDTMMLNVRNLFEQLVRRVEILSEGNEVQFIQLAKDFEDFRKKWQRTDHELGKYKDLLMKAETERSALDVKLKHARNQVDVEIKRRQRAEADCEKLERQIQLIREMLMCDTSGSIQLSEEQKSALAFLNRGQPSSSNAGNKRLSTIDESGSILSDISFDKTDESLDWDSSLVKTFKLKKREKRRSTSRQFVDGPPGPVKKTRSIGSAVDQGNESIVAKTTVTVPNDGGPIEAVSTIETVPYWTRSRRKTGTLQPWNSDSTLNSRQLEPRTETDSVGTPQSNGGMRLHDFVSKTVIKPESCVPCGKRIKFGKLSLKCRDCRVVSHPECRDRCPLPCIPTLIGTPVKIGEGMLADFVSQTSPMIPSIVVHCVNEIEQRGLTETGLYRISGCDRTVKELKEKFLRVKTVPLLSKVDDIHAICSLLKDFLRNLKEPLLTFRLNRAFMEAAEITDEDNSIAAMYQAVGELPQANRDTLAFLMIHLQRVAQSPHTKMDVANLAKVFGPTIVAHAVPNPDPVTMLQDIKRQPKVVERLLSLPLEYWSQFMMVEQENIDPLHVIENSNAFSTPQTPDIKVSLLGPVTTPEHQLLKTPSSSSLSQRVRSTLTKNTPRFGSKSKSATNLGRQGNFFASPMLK

[15] = biological target: T5, Microphthalmia-associated transcription factor (Homo sapiens, UniProt O75030); assay: TRPM1 promoter luciferase signal decrease, dose response, MITF inhibitor project, cell-based, SK-MEL-5, cherry-picked, set 3 (AID 493073); assay type: functional
T5 sequence (O75030 whole entry): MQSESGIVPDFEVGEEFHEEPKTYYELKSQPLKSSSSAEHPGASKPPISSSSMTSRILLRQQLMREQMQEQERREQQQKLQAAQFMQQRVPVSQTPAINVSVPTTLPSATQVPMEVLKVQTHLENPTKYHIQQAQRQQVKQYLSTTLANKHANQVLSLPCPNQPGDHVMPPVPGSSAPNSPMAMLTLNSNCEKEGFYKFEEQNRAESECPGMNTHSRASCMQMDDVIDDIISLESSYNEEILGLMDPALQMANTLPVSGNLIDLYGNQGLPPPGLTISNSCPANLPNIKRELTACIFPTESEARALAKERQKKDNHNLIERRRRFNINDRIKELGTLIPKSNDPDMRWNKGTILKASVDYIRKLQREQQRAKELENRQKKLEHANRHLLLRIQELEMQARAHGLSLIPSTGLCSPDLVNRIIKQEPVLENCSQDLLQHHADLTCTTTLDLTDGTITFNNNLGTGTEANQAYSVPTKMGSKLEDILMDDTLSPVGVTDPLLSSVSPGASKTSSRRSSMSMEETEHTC

[16] = biological target: T2, Heat shock factor protein 1; assay: inhibition of MG132-induced HSE-luciferase signal, confirmation, cell-based, NIH3T3, luminescence, dose retest (AID 2382); assay type: functional;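 further: NIH3T3 fibroblasts with HSF1-driven luciferase reporter stressed by proteasome inhibitor MG132; luminescence from HSF1-driven luciferase expression after 8 hours of MG132 stress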
[17] = biological target: T6, Long-chain-fatty-acid--AMP ligase FadD28 (Mycobacterium tuberculosis, UniProt P9WQ59); assay: Fluorescence polarization aasay to screen for inhibitors that compete for the binding of FadD28 to a bisubstrate Measured in Biochemical System Using Plate Reader - 2147-01_Inhibitor_Dose_CherryPick_Activity.; assay type: functional, Mycobacterium tuberculosis H37Rv
T6 sequence (P9WQ59 whole entry): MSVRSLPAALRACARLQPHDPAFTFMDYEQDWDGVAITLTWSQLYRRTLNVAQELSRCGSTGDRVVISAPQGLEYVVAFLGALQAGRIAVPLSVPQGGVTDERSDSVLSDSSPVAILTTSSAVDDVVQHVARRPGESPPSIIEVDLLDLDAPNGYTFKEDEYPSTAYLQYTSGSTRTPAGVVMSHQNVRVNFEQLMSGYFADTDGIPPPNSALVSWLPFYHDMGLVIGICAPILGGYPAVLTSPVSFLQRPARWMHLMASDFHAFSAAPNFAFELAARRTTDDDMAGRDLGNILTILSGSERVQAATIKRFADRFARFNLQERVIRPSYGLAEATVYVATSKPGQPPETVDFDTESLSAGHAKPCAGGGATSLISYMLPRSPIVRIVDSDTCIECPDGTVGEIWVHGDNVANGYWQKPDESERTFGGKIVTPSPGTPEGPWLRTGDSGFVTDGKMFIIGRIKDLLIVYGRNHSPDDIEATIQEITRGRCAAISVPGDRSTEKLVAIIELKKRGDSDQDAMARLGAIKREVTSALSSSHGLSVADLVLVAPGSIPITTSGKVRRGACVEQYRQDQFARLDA

[18] = biological target: T7, Luciferin 4-monooxygenase (Photuris pensylvanica, UniProt Q27757); assay: firefly luciferase enzyme inhibitors, dose response, counter-screen for HSF-1 reporter inhibitor project, biochemical, Cell Titer Glo, luminescence, cherry-picks (AID 588847)
T7 sequence (Q27757 whole entry): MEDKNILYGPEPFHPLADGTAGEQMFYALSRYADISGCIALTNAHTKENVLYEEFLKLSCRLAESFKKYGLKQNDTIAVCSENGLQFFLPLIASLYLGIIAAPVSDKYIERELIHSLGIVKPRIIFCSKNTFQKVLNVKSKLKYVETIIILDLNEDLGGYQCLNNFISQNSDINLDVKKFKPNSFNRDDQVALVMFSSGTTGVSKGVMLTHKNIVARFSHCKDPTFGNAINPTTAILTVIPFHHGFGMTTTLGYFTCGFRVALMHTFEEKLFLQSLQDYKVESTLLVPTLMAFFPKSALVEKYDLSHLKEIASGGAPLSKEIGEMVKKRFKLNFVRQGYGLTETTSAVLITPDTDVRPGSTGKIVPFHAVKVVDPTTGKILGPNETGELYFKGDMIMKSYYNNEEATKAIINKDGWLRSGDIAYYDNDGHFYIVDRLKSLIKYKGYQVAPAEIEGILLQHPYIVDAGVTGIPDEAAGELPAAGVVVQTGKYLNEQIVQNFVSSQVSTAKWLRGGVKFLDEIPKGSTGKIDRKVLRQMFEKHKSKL

## Cn1c(=O)oc2cc(S(=O)(=O)NCCN3CCCCCC3)ccc21
Escherichia coli [1]
  AC50: 24.2 µM (active)

## N=C(Cc1ccccc1)NOC(=O)c1cccc2ccccc12
[2]
  EC50: > 180 µM (inactive)
[3]
  EC50: 0.717 µM (active)
[4]
  EC50: 14 µM (active)
[5]
  EC50: 19.3 µM (active)

## c1coc(CN2CNc3nc4ccccc4n3C2)c1
Escherichia coli [1]
  AC50: 79.4 µM (active)
Escherichia coli [6]
  AC50: 101 µM (active)

## CC(C)(C)OC(=O)NCCCCCNC(=O)c1[nH]cnc1C(=O)NC1CCN(C(=O)OC(C)(C)C)CC1
Escherichia coli [6]
  AC50: 235 µM (active)

## Cc1ccc(CNC(=O)COC(=O)c2cccnc2Cl)cc1
Escherichia coli [1]
  AC50: 29.3 µM (active)
Escherichia coli [6]
  AC50: 73.1 µM (active)

## Sc1nnc(-c2cc(-c3ccccc3)[nH]n2)n1/N=C/C(Br)=C/c1ccccc1
HEK293 [7]
  EC50: > 59.6 µM (inactive)
HEK293 [8]
  EC50: > 59.6 µM (inactive)
[9]
  EC50: 2.65 µM (inconclusive)
Vero [10]
  IC50: 6.87 µM (active)
INS1
  AC50: 9.04 µM (active)
[11]
  IC50: 4.97 µM (active)
Vero [12]
  CC50: > 25 µM (active)
[13]
  AC50: 0.614 µM (active)

## Cc1ccc(/C=N/Nc2ccc(C(=O)O)cc2)s1
Leucine aminopeptidase
  IC50: 20.4 µM (active)
[14]
  IC50: 89.2 µM (active)
[15]
  AC50: 3.3 µM (active)
[16]
  EC50: < 0.16 µM (active)
[17]
  AC50: 37.8 µM (active)
[18]
  AC50: 0.721 µM (active)

## CCC(=O)O[C@]1(C(=O)CCl)[C@@H](C)C[C@H]2[C@@H]3CCC4=CC(=O)C=C[C@]4(C)[C@@]3(F)[C@@H](O)C[C@@]21C [CLOBETASOL PROPIONATE]
[18]
  AC50: > 52 µM (inactive)
